Tests used:
[1] = system: Arc protein; assay: Western blot of total Arc protein in primary cortical neurons; type: cell-based, mouse; settings: CGP 57380 5 µM co-treated 6 h with BDNF
[2] = system: eIF4E phosphorylation; assay: Western blot of phospho-eIF4E in primary cortical neurons; type: cell-based, mouse; settings: CGP 57380 5 µM co-treated 6 h with BDNF
Method: For western blot analyses, cells were collected by scraping in ice-cold radioimmunoprecipitation assay (RIPA) buffer (50 mM Tris-HCl (pH 8.0), 300 mM NaCl, 0.5% Igepal-630, 0.5% deoxycholic acid, 0.1% SDS, 1 mM EDTA) supplemented with a cocktail of protease inhibitors (Complete Protease Inhibitor without EDTA, Roche Applied Science, Indianapolis, IN) and phosphatase inhibitors (phosphatase inhibitor cocktail A, Santa Cruz Biotechnology). One volume of 2× Laemmli buffer (100 mM Tris-HCl (pH 6.8), 4% SDS, 0.15% bromophenol blue, 20% glycerol, 200 mM β-mercaptoethanol) was added and the extracts were boiled for 5 min. Samples were adjusted to an equal concentration after protein concentrations were determined using the BCA assay (Pierce, Thermo Fisher Scientific). Lysates were separated using SDS–PAGE and transferred to a nitrocellulose membrane. After transfer, the membrane was blocked in TBST (Tris-buffered saline + 0.1% Tween 20) supplemented with 5% nonfat powdered milk and probed with the indicated primary antibody at 4 °C overnight. After washing with TBST, the membrane was incubated with the appropriate secondary antibody and visualized using enhanced chemiluminescence (ECL) reagents according to the manufacturer’s guidelines (Pierce, Thermo Fisher Scientific). Uncropped scans with molecular weight reference are shown in Supplementary Figs. 10–20.

Q: Which “effect on BDNF-induced Arc expression (western blot)” value [1] does the source give for Nc1ncnc2n[nH]c(Nc3ccc(F)cc3)c12 [CGP 57380] here?
A: Its value is “did not prevent Arc expression”.

Q: And the “effect on eIF4E phosphorylation” value [2]?
A: The value was “impacting eukaryotic translation initiation factor 4E (eIF4E) phosphorylation”.
